Calls of active or inactive are those of the source. The calls are words filed in the database; no cut-off is given here.
Assays:
[1] = Antiproliferative activity against human KATO III cells incubated for 72 hrs by MTT assay
[2] = system: SNU-16; test: Antiproliferative activity against human SNU-16 cells incubated for 72 hrs by MTT assay; settings: SNU-16, 72 h
[3] = species on record: Homo sapiens; test: Induction of VEGFR2 (unknown origin) degradation
[4] = system: BaF3; test: Antiproliferative activity against mouse BaF3 cells stably expressing TEL-FGFR2 incubated for 72 hrs bby CellTiter-Glo assay; settings: BaF3, 72 h
[5] = system: BaF3; test: Antiproliferative activity against mouse BaF3 cells stably expressing TEL-FGFR1 incubated for 72 hrs bby CellTiter-Glo assay; settings: BaF3, 72 h
[6] = system: BaF3; test: Antiproliferative activity against mouse BaF3 cells stably expressing TEL-FGFR3 incubated for 72 hrs bby CellTiter-Glo assay; settings: BaF3, 72 h
[7] = system: BaF3; test: Antiproliferative activity against mouse BaF3 cells stably expressing TEL-FGFR4 incubated for 72 hrs bby CellTiter-Glo assay; settings: BaF3, 72 h
[8] = system: KATO III; test: Induction of cell cycle arrest at G0/G1 phase in human KATO III cells assessed as reduction in CDK2 level at 500 to 1000 nM incubated for 24 hrs by Western blot analysis; assay type: functional, cell-based; settings: dose 500-1000 nM
[9] = system: KATO III; test: Induction of cell cycle arrest at G0/G1 phase in human KATO III cells assessed as reduction in CDK4 level at 500 to 1000 nM incubated for 24 hrs by Western blot analysis; assay type: functional, cell-based; settings: dose 500-1000 nM
[10] = system: KATO III; test: Induction of cell cycle arrest at G0/G1 phase in human KATO III cells assessed as reduction in Cyclin D1 level at 500 to 1000 nM incubated for 24 hrs by Western blot analysis; assay type: functional, cell-based; settings: dose 500-1000 nM
[11] = system: KATO III; test: Induction of cell cycle arrest at G0/G1 phase in human KATO III cells assessed as reduction in Cyclin E level at 500 to 1000 nM incubated for 24 hrs by Western blot analysis; assay type: functional, cell-based; settings: dose 500-1000 nM
[12] = system: KATO III; test: Induction of cell cycle arrest at G0/G1 phase in human KATO III cells assessed as increase in p21 level at 500 to 1000 nM incubated for 24 hrs by Western blot analysis; assay type: functional, cell-based; settings: dose 500-1000 nM
[13] = system: SNU-16; test: Induction of cell cycle arrest at G0/G1 phase in human SNU-16 cells assessed as increase in p21 level at 500 to 1000 nM incubated for 24 hrs by Western blot analysis; assay type: functional, cell-based; settings: dose 500-1000 nM
[14] = system: KATO III; test: Induction of apoptosis in human KATO III cells assessed as increase in cleaved caspase-3 level at 0.5 to 1 uM incubated for 24 hrs by Western blot analysis; assay type: functional, cell-based; settings: dose 0.5-1 µM
[15] = system: SNU-16; test: Induction of apoptosis in human SNU-16 cells assessed as increase in cleaved caspase-3 level at 0.5 to 1 uM incubated for 24 hrs by Western blot analysis; assay type: functional, cell-based; settings: dose 0.5-1 µM
[16] = Half life in Sprague-Dawley rat at 2 mg/kg, iv measured for 24 hrs by LC-MS/MS analysis; assay type: ADME, organism-based; settings: in vivo
[17] = MRT (infinity) in Sprague-Dawley rat at 2 mg/kg, iv measured for 24 hrs by LC-MS/MS analysis; assay type: ADME, organism-based; settings: in vivo
[18] = Clearance in Sprague-Dawley rat at 2 mg/kg, iv measured for 24 hrs by LC-MS/MS analysis; assay type: ADME, organism-based; settings: in vivo
[19] = Volume of distribution at steady state in Sprague-Dawley rat at 2 mg/kg, iv measured for 24 hrs by LC-MS/MS analysis; assay type: ADME, organism-based; settings: in vivo, read-out: Vdss
[20] = AUC (0 to t) in Sprague-Dawley rat at 2 mg/kg, iv measured for 24 hrs by LC-MS/MS analysis; assay type: ADME, organism-based; settings: in vivo
[21] = AUC (infinity) in Sprague-Dawley rat at 2 mg/kg, iv measured for 24 hrs by LC-MS/MS analysis; assay type: ADME, organism-based; settings: in vivo
[22] = Half life in Sprague-Dawley rat at 5 mg/kg, ip measured for 24 hrs by LC-MS/MS analysis; assay type: ADME, organism-based; settings: in vivo
[23] = Tmax in Sprague-Dawley rat at 5 mg/kg, ip measured for 24 hrs by LC-MS/MS analysis; assay type: ADME, organism-based; settings: in vivo
[24] = Cmax in Sprague-Dawley rat at 5 mg/kg, ip measured for 24 hrs by LC-MS/MS analysis; assay type: ADME, organism-based; settings: in vivo
[25] = MRT (infinity) in Sprague-Dawley rat at 5 mg/kg, ip measured for 24 hrs by LC-MS/MS analysis; assay type: ADME, organism-based; settings: in vivo
[26] = Apparent oral clearance in Sprague-Dawley rat at 5 mg/kg, ip measured for 24 hrs by LC-MS/MS analysis; assay type: ADME, organism-based; settings: in vivo
[27] = Apparent volume of distribution during terminal phase in Sprague-Dawley rat at 5 mg/kg, ip measured for 24 hrs by LC-MS/MS analysis; assay type: ADME, organism-based; settings: in vivo, read-out: Vz/F
[28] = AUC (0 to t) in Sprague-Dawley rat at 5 mg/kg, ip measured for 24 hrs by LC-MS/MS analysis; assay type: ADME, organism-based; settings: in vivo
[29] = AUC (infinity) in Sprague-Dawley rat at 5 mg/kg, ip measured for 24 hrs by LC-MS/MS analysis; assay type: ADME, organism-based; settings: in vivo
[30] = Oral bioavailability in Sprague-Dawley rat at 5 mg/kg measured for 24 hrs by LC-MS/MS analysis; assay type: ADME, organism-based; settings: in vivo
[31] = system: SNU-16; test: Antitumor activity against human SNU-16 cells xenografted in BALB/c mouse assessed as decrease in tumor size at 10 to 20 mg/kg, ip qd for 25 days; assay type: functional, organism-based; settings: dose 10-20 mg/kg, time 25.0 day
[32] = system: SNU-16; test: Antitumor activity against human SNU-16 cells xenografted in BALB/c mouse assessed as tumor growth suppression at 10 to 20 mg/kg, ip qd for 25 days; assay type: functional, organism-based; settings: dose 10-20 mg/kg, time 25.0 day
[33] = system: SNU-16; test: Antitumor activity against human SNU-16 cells xenografted in BALB/c mouse at 20 mg/kg, ip qd for 25 days relative to control; settings: SNU-16, 600 h, read-out: TGI
[34] = system: SNU-16; test: Antitumor activity against human SNU-16 cells xenografted in BALB/c mouse assessed as decrease in tumor weight at 10 to 20 mg/kg, ip qd for 25 days; assay type: functional, organism-based; settings: dose 10-20 mg/kg, time 25.0 day
[35] = Toxicity in BALB/c mouse xenografted with human SNU-16 cells assessed as obvious side effect at 10 to 20 mg/kg, ip qd for 25 days; assay type: organism-based; settings: in vivo, 600 h, dose 10-20 mg/kg, time 25 day
[36] = Toxicity in BALB/c mouse xenografted with human SNU-16 cells assessed as weight loss at 10 to 20 mg/kg, ip qd for 25 days; assay type: organism-based; settings: in vivo, 600 h, dose 10-20 mg/kg, time 25 day
[37] = Toxicity in BALB/c mouse xenografted with human SNU-16 cells assessed as damage in heart at 10 to 20 mg/kg, ip qd for 25 days by H and E staining based analysis; assay type: organism-based; settings: in vivo, 600 h, dose 10-20 mg/kg, time 25 day
[38] = Toxicity in BALB/c mouse xenografted with human SNU-16 cells assessed as damage in liver at 10 to 20 mg/kg, ip qd for 25 days by H and E staining based analysis; assay type: organism-based; settings: in vivo, 600 h, dose 10-20 mg/kg, time 25 day
[39] = Toxicity in BALB/c mouse xenografted with human SNU-16 cells assessed as damage in lung at 10 to 20 mg/kg, ip qd for 25 days by H and E staining based analysis; assay type: organism-based; settings: in vivo, 600 h, dose 10-20 mg/kg, time 25 day
[40] = Toxicity in BALB/c mouse xenografted with human SNU-16 cells assessed as damage in spleen at 10 to 20 mg/kg, ip qd for 25 days by H and E staining based analysis; assay type: organism-based; settings: in vivo, 600 h, dose 10-20 mg/kg, time 25 day
[41] = Toxicity in BALB/c mouse xenografted with human SNU-16 cells assessed as damage in kidney at 10 to 20 mg/kg, ip qd for 25 days by H and E staining based analysis; assay type: organism-based; settings: in vivo, 600 h, dose 10-20 mg/kg, time 25 day
[42] = Toxicity in BALB/c mouse xenografted with human SNU-16 cells assessed as drug tolerance at 10 to 20 mg/kg, ip qd for 25 days; assay type: organism-based; settings: in vivo, 600 h, dose 10-20 mg/kg, time 25 day
[43] = cells; settings: Homo sapiens, KATO III, 24 h, read-out: Activity
Description: Induction of apoptosis in human KATO III cells assessed as viable cells at 500 nM incubated for 24 hrs by Annexin V-FITC/PI staining based flow cytometry (Rvb = 87.00 %)

[44] = cells; settings: Homo sapiens, KATO III, 24 h, read-out: Activity; remark: listed apart in the source
Description: Induction of apoptosis in human KATO III cells assessed as viable cells at 1000 nM incubated for 24 hrs by Annexin V-FITC/PI staining based flow cytometry (Rvb = 87.00 %)

[45] = system: SNU-16; test: cells; settings: Homo sapiens, SNU-16, 24 h, read-out: Activity
Description: Induction of apoptosis in human SNU-16 cells assessed as viable cells at 500 nM incubated for 24 hrs by Annexin V-FITC/PI staining based flow cytometry (Rvb = 77.12 %)

[46] = system: SNU-16; test: cells; settings: Homo sapiens, SNU-16, 24 h, read-out: Activity; remark: listed apart in the source
Description: Induction of apoptosis in human SNU-16 cells assessed as viable cells at 1000 nM incubated for 24 hrs by Annexin V-FITC/PI staining based flow cytometry (Rvb = 77.12 %)

COc1cc(OC)cc(N(CCNC(C)C)c2ccc3ncc(-c4cnn(CCCCCCC(=O)NCCNc5cccc6c5C(=O)N(C5CCC(=O)NC5=O)C6=O)c4)nc3c2)c1 (stereo unspecified)
IC50 [1]: < 0.17 nM | IC50 [2]: < 0.17 nM | Activity [3]: inactive | IC50 [4]: 22.7 nM | IC50 [5]: 138 nM | IC50 [6]: 97.1 nM | IC50 [7]: 332 nM | Activity [8]: Active | Activity [9]: Active | Activity [10]: Active | Activity [11]: Active | Activity [12]: Active | Activity [13]: Active | Activity [14]: Active | Activity [15]: Active | half-life [16]: 4.65 h | MRT inf [17]: 2.27 h | clearance [18]: 59.3 mL/min/kg | Vd [19]: 7.58 L/kg | AUC(0-t) at 24 h [20]: 544 ng·h/mL | AUC(0-inf) [21]: 570 ng·h/mL | half-life [22]: 7.59 h | Tmax [23]: 0.25 h | Cmax [24]: 302 ng/mL | MRT inf [25]: 6.53 h | CL/F [26]: 78.2 mL/min/kg | Vd/F [27]: 51.4 L/kg | AUC(0-t) at 24 h [28]: 991 ng·h/mL | AUC(0-inf) [29]: 1070 ng·h/mL | bioavailability [30]: 74.8% | Activity [31]: Active | Activity [32]: Active | inhibition in vivo at 20 mg/kg [33]: 117% | Activity [34]: Active | Activity [35]: Non-Toxic | Activity [36]: Non-Toxic | Activity [37]: Non-Toxic | Activity [38]: Non-Toxic | Activity [39]: Non-Toxic | Activity [40]: Non-Toxic | Activity [41]: Non-Toxic | Activity [42]: Non-Toxic | viability at 0.5 µM [43]: 66.8% | viability at 1 µM [44]: 65% | viability at 0.5 µM [45]: 45.6% | viability at 1 µM [46]: 42.7%
